This passage reports melting point results from patent US8765779B2, “Tricyclic derivatives and their pharmaceutical use and compositions” (Cephalon, Inc., priority 2009, dated 2014).

Structures can show the parent of a compound that is named as a salt.

A word on the melting point: it is the temperature of the solid-liquid transition.

Take `CC1(C)CNC2(CCOCC2)c2oc3cc(S(=O)(=O)c4cccc(F)c4)ccc3c21` (as salt: HCl) [Example 2, 7-[(3-fluorophenyl)sulfonyl]-4,4-dimethyl-2′,3,3′,4,5′,6′-hexahydro-2H-spiro[1-benzofuro[2,3-c]pyridine-1,4′-pyran]]: the melting point fell in the range of 286 to 288 °C.

On to `O=C(COc1cccc(S(=O)(=O)c2ccc3c(c2)OC2CNCCC32)c1)N1CCCC1` (centres unmarked) (as salt: HCl) [Example 564], for which the melting point fell in the range of 195 to 196 °C.

In turn, `O=S(=O)(c1cccc(OCC2CCOCC2)c1)c1ccc2c(c1)OC1CNCCC21` (centres unmarked) (as salt: HCl) [Example 581, 7-{[3-(tetrahydro-2H-pyran-4-ylmethoxy)phenyl]sulfonyl}-1,2,3,4,4a,9a-hexahydro[1]benzofuro[2,3-c]pyridine] displayed a melting point of 186 to 188 °C.

Compound `O=S(=O)(c1cccc(OCc2cnccn2)c1)c1ccc2c(c1)OC1CNCCC21` (centres unmarked) (as salt: HCl) [Example 567] returned a melting point of 244 to 245 °C.

For the compound `CCCCOc1cccc(S(=O)(=O)c2ccc3c(c2)OC2CNCCC32)c1` (centres unmarked) (as salt: HCl) [Example 554], the melting point fell in the range of 206 to 208 °C.

Turning to `O=S(=O)(c1ccc2c(c1)OC1CNCCC21)c1cccc(OCC2CCOCC2)c1Cl` (centres unmarked) (as salt: HCl) [Example 485], the melting point fell in the range of 185 to 187 °C.

With `O=S(=O)(c1cccc(F)c1)c1ccc2c3c(oc2c1)C(CF)(CF)NCC3` [Example 35, 1,1-bis(fluoromethyl)-7-[(3-fluorophenyl)sulfonyl]-1,2,3,4-tetrahydro[1]benzofuro[2,3-c]pyridine], the melting point is 154 to 157 °C.

`O=S(=O)(c1cccc(OCC2CCCO2)c1)c1ccc2c(c1)OC1CNCCC21` (centres unmarked) (as salt: HCl) [Example 577] gave a melting point of 205 to 206 °C.

As for `N#Cc1ccc(COc2cccc(S(=O)(=O)c3ccc4c(c3)OC3CNCCC43)c2)cc1` (centres unmarked) (as salt: HCl) [Example 551], the melting point was in the range of 203 to 204 °C.

Take `CCOCC1NCCc2c1oc1cc(S(=O)(=O)c3cccc(F)c3)ccc21` (racemic) (as salt: HCl) [Example 33, 1-(ethoxymethyl)-7-[(3-fluorophenyl)sulfonyl]-1,2,3,4-tetrahydro[1]benzofuro[2,3-c]pyridine]: the melting point is 230 to 250 °C (dec.).

For `CC(C)Oc1cccc(S(=O)(=O)c2ccc3c(c2)OC2CNCCC32)c1F` (centres unmarked) (as salt: HCl) [Example 483], the melting point lay within 221 to 224 °C.

For `O=S(=O)(c1cccc(F)c1)c1ccc2c3c(oc2c1)C1(CCCC1)NCC3` (as salt: HCl) [Example 28, 7-[(3-fluorophenyl)sulfonyl]-3,4-dihydro-2H-spiro[1-benzofuro[2,3-c]pyridine-1,1′-cyclopentane]], the melting point is more than 250 °C.

`CCCOc1cccc(S(=O)(=O)c2ccc3c(c2)OC2CNCCC32)c1` (centres unmarked) (as salt: HCl) [Example 572] displayed a melting point of 210 to 213 °C.

In turn, `O=S(=O)(c1cccc(OCCCO)c1)c1ccc2c(c1)OC1CNCCC21` (centres unmarked) (as salt: HCl) [Example 568] yielded a melting point of 206 to 209 °C.

The compound `COc1cc(OC2CCC2)cc(S(=O)(=O)c2ccc3c(c2)OC2CNCCC32)c1` (centres unmarked) (as salt: HCl) [Example 583] gave a melting point of 218 to 220 °C.

As to `CC1(C)CNC(C2CCOCC2)c2oc3cc(S(=O)(=O)c4cccc(F)c4)ccc3c21` (racemic) (as salt: HCl) [Example 45, 7-[(3-fluorophenyl)sulfonyl]-4,4-dimethyl-1-(tetrahydro-2H-pyran-4-yl)-1,2,3,4-tetrahydro[1]benzofuro[2,3-c]pyridine], the melting point was 248 to 252 °C.

Consider `CN(C)C(=O)CC1(C)NCCc2c1oc1cc(S(=O)(=O)c3cccc(F)c3)ccc21` (single isomer, unassigned) (as salt: HCl) [Example 50, 2-{7-[(3-fluorophenyl)sulfonyl]-1-methyl-1,2,3,4-tetrahydro[1]benzofuro[2,3-c]pyridin-1-yl}-N,N-dimethylacetamide], for which the melting point lay within 230 to 233 °C.
